Laboratory results published in publication PMC11403612, “Preparation and Preclinical Characterization of a Simple Ester for Dual Exogenous Supply of Lactate and Beta-hydroxybutyrate” (Journal of Agricultural and Food Chemistry, 2024).

Key:
[1] = tested on: N-L-lactoyl-phenylalanine (Lac-Phe); experiment: Plasma N-L-lactoyl-phenylalanine after oral LaKe in rats; assay type: in vivo, Sprague–Dawley rats; conditions: 4.5 g/kg oral
Method: Male Sprague–Dawley rats (300–350g, Taconic, Ry, Denmark) were kept for acclimatization at a constant temperature of 23 °C with a 12 h light-dark cycle and with unlimited access to food and water. All animal handling was in accordance with national guidelines in Denmark and the guidelines from the Directive 2010/63/EU of the European Parliament on the protection of animals used for scientific purposes, and all experiments conformed to Danish Law (Act. No. 1306 of 23/11/2007). The experimental protocol was approved by the Danish Animal Expectorate (2018-15-0201-01475).
The rats were randomly selected to receive either LaKe (n = 8) or placebo (n = 8). […]
Concentrations of non-esterified free fatty acids (FFA) were measured using a NEFA-HR(2) kit (Wako, Chemicals Gmbh, Germany). Absorbance was measured by spectrometry (PHERAstar FS, BMG LABTECH, […]
Quantification of N-L-lactoyl phenylalanine (Lac-Phe) by LC-MS/MS […]
Pure calibrant samples were prepared from an authentic standard compound (N-L-lactoyl phenylalanine), using the plasma sample preparation method at concentrations equivalent to […] in the original sample. The lower limit of quantification for N-L-lactoyl phenylalanine (Lac-Phe) quantification was estimated to 10 nM. […]

[2] = Stability of LaKe upon storage (neat, GC-FID); assay type: physicochemical; conditions: ambient temperature
Method: Following preparation, LaKe was analyzed by GC-FID. Subsequently, LaKe was stored neat at either −15, 0, and 20 °C and the samples were reanalyzed after 24 months. Table S1 (Supporting Information) contains the corresponding stability data and the GC-FID conditions applied.

CC(O)CCOC(=O)C(C)O (centres unmarked) [LaKe, 3-hydroxybutyl 2-hydroxypropanoate]
change in plasma Lac-Phe [1]: increase | stability to storage in the neat state [2]: at least 2 years
